# System: Bovine cardiac myofibrils
# Assay: In vitro model of dose-dependent myofibril ATPase modulation (AC1.4, pyruvate kinase/lactate dehydrogenase-coupled ATPase assay at pCa25)
# Assay type: biochemical
# Conditions: concentration at which ATPase activity was 1.4-fold higher than the bottom of the dose curve, mean of a minimum of two independent tests
# Procedure, shortened: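 Bovine cardiac myofibrils, detergent-treated; 0.25-1.0 mg/ml. Buffer: K-PIPES 12 mM, MgCl2 2 mM, DTT 1 mM, BSA 0.1 mg/ml, pH 6.80, 22° C; Ca2+ set by EGTA/CaCl2. ATP 1 mM, NADH/PEP-coupled, A340. 4-parameter fit; n≥2.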
row,SMILES,AC1.4 [µM]
1,"CC1(O)CN(S(=O)(=O)N2CCC[C@H](C(=O)N3CCC[C@@H]3C(=O)NCc3ccc(C(F)(F)F)cc3)C2)C1 [Example 730, 1 (((3S)-1-((3-hydroxy-3-methyl-1-azetidinyl)sulfonyl)-3-piperidinyl)carbonyl)-N-(4-(trifluoromethyl)benzyl)-D-prolinamide]",6.7333
2,"CS(=O)(=O)c1cc(C(=O)N2[C@@H](C(=O)N[C@@H](c3cc(F)c(C(F)(F)F)cc3F)C3CC3)C[C@@H]3C[C@@H]32)ccn1 [Example 731, (1S,3R,5S)-N-((R)-cyclopropyl(2,5-difluoro-4-(trifluoromethyl)phenyl)methyl)-2-((2-(methylsulfonyl)-4-pyridinyl)carbonyl)-2-azabicyclo[3.1.0]hexane-3-carboxamide]",6.763
3,"CS(=O)(=O)c1cccc(C(=O)N2CC[C@H]2C(=O)N[C@@H](c2cc(F)c(Cl)cc2F)C2CC2)c1 [Example 732, (2S)-N-((R)-(4-chloro-2,5-difluorophenyl)(cyclopropyl)methyl)-1-(3-(methylsulfonyl)benzoyl)-2-azetidinecarboxamide]",6.7885
4,"N#CC1CN(S(=O)(=O)N2CCC[C@H](C(=O)N3CCC[C@@H]3C(=O)N[C@@H](CO)c3ccc(Cl)cc3)C2)C1 [Example 733, N-((1R)-1-(4-chlorophenyl)-2-hydroxyethyl)-1-(((3S)-1-((3-cyano-1-azetidinyl)sulfonyl)-3-piperidinyl)carbonyl)-D-prolinamide]",6.8025
5,"CC(C)(C)OC1CN(S(=O)(=O)N2CCC[C@H](C(=O)N3CCC[C@@H]3C(=O)NCc3ccc(C(F)(F)F)cc3)C2)C1 [Example 734, 1-(((3S)-1-((3-tert-butoxy-1-azetidinyl)sulfonyl)-3-piperidinyl)carbonyl)-N-(4-(trifluoromethyl)benzyl)-D-prolinamide]",6.866
6,"CCCCCC1CN(S(=O)(=O)N2CCC[C@H](C(=O)N3CCC[C@@H]3C(=O)NCc3ccc(C(F)(F)F)cc3)C2)C1 [Example 735, 1-(((3S)-1-((3-pentyl-1-azetidinyl)sulfonyl)-3-piperidinyl)carbonyl)-N-(4-(trifluoromethyl)benzyl)-D-prolinamide]",7.0265
7,"Cc1cc(C(=O)N2[C@@H](C(=O)N[C@@H](c3cc(F)c(Cl)cc3F)C3CC3)C[C@H]3C[C@H]32)ccn1 [Example 736, (1R,3R,5R)-N-((R)-(4-chloro-2,5-difluorophenyl)(cyclopropyl)methyl)-2-((2-methyl-4-pyridinyl)carbonyl)-2-azabicyclo[3.1.0]hexane-3-carboxamide]",7.041
8,"O=C(N[C@@H](c1ccc(C(F)(F)F)cc1F)C1CC1)[C@H]1CCCN1C(=O)c1cccc(-c2cn[nH]c2)c1 [Example 737, N-((R)-cyclopropyl(2-fluoro-4-(trifluoromethyl)phenyl)methyl)-1-(3-(1H-pyrazol-4-yl)benzoyl)-D-prolinamide]",7.053
9,"CC(C)(C)c1cc(C(=O)N2[C@@H](C(=O)N[C@@H](c3ccc(Cl)cc3F)C3COC3)C[C@H]3C[C@H]32)ccn1 [Example 738, (1R,3R,5R)-N-((R)-(4-chloro-2-fluorophenyl)(3-oxetanyl)methyl)-2-((2-(2-methyl-2-propanyl)-4-pyridinyl)carbonyl)-2-azabicyclo[3.1.0]hexane-3-carboxamide]",7.0545
10,"O=C(NCc1ccc(C(F)(F)F)cc1)[C@H]1CCCN1C(=O)[C@H]1CCCN(S(=O)(=O)N2CC(C3CCOC3)C2)C1 (stereo partly drawn) [Example 739, (2R)-1-((3S)-1-((3-(tetrahydrofuran-3-yl)azetidin-l-yl)sulfonyl)piperidine-3-carbonyl)-N-(4-(trifluoromethyl)benzyl)pyrrolidine-2-carboxamide]",7.1325
11,"CC(C)(C)[C@@H](NC(=O)[C@H]1CCCN1C(=O)[C@H]1CCCN(S(=O)(=O)N2CC(C#N)C2)C1)c1ccc(C(F)(F)F)cc1 [Example 740, 1-(((3S)-1-((3-cyano-1-azetidinyl)sulfonyl)-3-piperidinyl)carbonyl)-N-((1R)-2,2-dimethyl-1-(4-(trifluoromethyl)phenyl)propyl)-D-prolinamide]",7.156
12,"Cc1ccc(C(F)(F)F)c(CNC(=O)[C@H]2CCCN2C(=O)[C@H]2CCCN(S(=O)(=O)N3CC(C#N)C3)C2)c1 [Example 741, 1-(((3S)-1-((3-cyano-1-azetidinyl)sulfonyl)-3-piperidinyl)carbonyl)-N-(5-methyl-2-(trifluoromethyl)benzyl)-D-prolinamide]",7.1615
13,"CS(=O)(=O)c1cccc(C(=O)N2CCC[C@@H]2C(=O)N[C@@H]2CCc3cc(C(F)(F)F)ccc32)c1 [Example 742, 1-(3-(methylsulfonyl)benzoyl)-N-((1R)-5-(trifluoromethyl)-2,3-dihydro-1H-inden-1-yl)-D-prolinamide]",7.2
14,"O=C(NCc1ccc(C(F)(F)F)cc1)[C@H]1CCCN1C(=O)[C@H]1CCCN(S(=O)(=O)N2CC3(C2)CC(O)(C(F)(F)F)C3)C1 [Example 743, 1-(((3S)-1-((6-hydroxy-6-(trifluoromethyl)-2-azaspiro[3.3]hept-2-yl)sulfonyl)-3-piperidinyl)carbonyl)-N-(4-(trifluoromethyl)benzyl)-D-prolinamide]",7.2015
15,"CN(C)S(=O)(=O)N1CCC[C@H](C(=O)N2CCC[C@@H]2C(=O)NCc2ccc(C(F)(F)F)cc2)C1 [Example 744, 1-(((3S)-1-(dimethylsulfamoyl)-3-piperidinyl)carbonyl)-N-(4-(trifluoromethyl)benzyl)-D-prolinamide]",7.232
16,"O=C(N[C@@H](c1ccc(C(F)(F)F)cc1F)C1CC1)[C@H]1CCCN1C(=O)c1cccc(-c2cc[nH]n2)c1 [Example 745, N-((R)-cyclopropyl(2-fluoro-4-(trifluoromethyl)phenyl)methyl)-1-(3-(1H-pyrazol-3-yl)benzoyl)-D-prolinamide]",7.244
17,"N#CC1CN(S(=O)(=O)N2CCC[C@H](C(=O)N3CCC[C@@H]3C(=O)NCc3ccccc3C(F)(F)F)C2)C1 [Example 746, 1-(((3S)-1-((3-cyano-1-azetidinyl)sulfonyl)-3-piperidinyl)carbonyl)-N-(2-(trifluoromethyl)benzyl)-D-prolinamide]",7.268
18,"COc1cc(F)c([C@H](NC(=O)[C@H]2C[C@H]3C[C@H]3N2C(=O)c2cccc(S(C)(=O)=O)c2)C2CC2)cc1F [Example 747, (1R,3R,5R)-N-((R)-cyclopropyl(2,5-difluoro-4-methoxyphenyl)methyl)-2-(3-(methylsulfonyl)benzoyl)-2-azabicyclo[3.1.0]hexane-3-carboxamide]",7.287
19,"CC(C)c1cc(C(=O)N2[C@@H](C(=O)N[C@@H](c3ccc(C(F)(F)F)cc3F)C3COC3)C[C@H]3C[C@H]32)ccn1 [Example 748, (1R,3R,5R)-N-((R)-(2-fluoro-4-(trifluoromethyl)phenyl)(3-oxetanyl)methyl)-2-((2-(2-propanyl)-4-pyridinyl)carbonyl)-2-azabicyclo[3.1.0]hexane-3-carboxamide]",7.314
20,"C#CCN(C)S(=O)(=O)c1cccc(C(=O)N2CCC[C@@H]2C(=O)N[C@H](C)c2ccc(C(F)(F)F)cc2)c1 [Example 749, 1-(3-(methyl(2-propyn-1-yl)sulfamoyl)benzoyl)-N-((1R)-1-(4-(trifluoromethyl)phenyl)ethyl)-D-prolinamide]",7.3175
21,"CS(=O)(=O)c1cccc(C(=O)N2CC[C@@H]3C[C@]32C(=O)N[C@@H](c2ccc(C(F)(F)F)cc2F)C2CC2)c1 [Example 751, (1R,5R)-N-((R)-cyclopropyl(2-fluoro-4-(trifluoromethyl)phenyl)methyl)-2-(3-(methylsulfonyl)benzoyl)-2-azabicyclo[3.1.0]hexane-1-carboxamide]",7.3925
22,"CS(=N)(=O)c1cccc(C(=O)N2[C@@H](C(=O)N[C@@H](c3cc(F)c(Cl)cc3F)C3CC3)C[C@H]3C[C@H]32)c1 (stereo partly drawn) [Example 752, (1R,3R,5R)—N—((R)-(4-chloro-2,5-difluorophenyl)(cyclopropyl)methyl)-2-(3-(S-methylsulfonimidoyl)benzoyl)-2-azabicyclo[3.1.0]hexane-3-carboxamide]",7.417
23,"CS(=O)(=O)c1cccc(C(=O)N2[C@@H](C(=O)N[C@@H]3CCc4cc(Cl)ccc43)C[C@H]3C[C@H]32)c1 [Example 753, (1R,3R,5R)-N-((1R)-5-chloro-2,3-dihydro-1H-inden-1-yl)-2-(3-(methylsulfonyl)benzoyl)-2-azabicyclo[3.1.0]hexane-3-carboxamide]",7.42
24,"O=C(NC1CN(S(=O)(=O)N2CCC[C@H](C(=O)N3CCC[C@@H]3C(=O)NCc3ccc(C(F)(F)F)cc3)C2)C1)C1CCC1 [Example 754, 1-(((3S)-1-((3-((cyclobutylcarbonyl)amino)-1-azetidinyl)sulfonyl)-3-piperidinyl)carbonyl)-N-(4-(trifluoromethyl)benzyl)-D-prolinamide]",7.453
25,"Nc1ccccc1C(=O)N1[C@@H](C(=O)N[C@@H](c2ccc(C(F)(F)F)cc2F)C2CC2)C[C@H]2C[C@H]21 [Example 755, (1R,3R,5R)-2-(2-aminobenzoyl)-N-((R)-cyclopropyl(2-fluoro-4-(trifluoromethyl)phenyl)methyl)-2-azabicyclo[3.1.0]hexane-3-carboxamide]",7.5435
26,"CS(=O)(=O)c1cccc(C(=O)N2CC[C@@H](F)[C@@H]2C(=O)N[C@@H](c2ccc(C(F)(F)F)cc2)C2CC2)c1 [Example 756, (3R)-N-((R)-cyclopropyl(4-(trifluoromethyl)phenyl)methyl)-3-fluoro-1-(3-(methylsulfonyl)benzoyl)-D-prolinamide]",7.5875
27,"CC(O)C(NC(=O)[C@H]1C[C@H]2C[C@H]2N1C(=O)c1cccc(S(C)(=O)=O)c1)c1cc(F)c(Cl)cc1F (stereo partly drawn) [Example 757, (1R,3R,5R)-N-(1-(4-chloro-2,5-difluorophenyl)-2-hydroxypropyl)-2-(3-(methylsulfonyl)benzoyl)-2-azabicyclo[3.1.0]hexane-3-carboxamide]",7.6005
